# Measurements published in patent US20250387359A1, “COMPOUNDS AND METHODS FOR THE TREATMENT OF PARASITIC INFECTIONS” (THE BOARD OF TRUSTEES OF THE UNIVERSITY OF ILLINOIS, priority 2019, published 2025).
# “Also recorded” adds a separate entry of the source. Like-named read-outs stand apart in the source and are kept apart here.
# What was measured:
# [1] = target: T1, Plasmodium falciparum phosphoethanolamine methyltransferase enzyme (Plasmodium falciparum, UniProt Q8IDQ9); details: previously shown; cited from earlier work
# T1 sequence (Q8IDQ9 1-266): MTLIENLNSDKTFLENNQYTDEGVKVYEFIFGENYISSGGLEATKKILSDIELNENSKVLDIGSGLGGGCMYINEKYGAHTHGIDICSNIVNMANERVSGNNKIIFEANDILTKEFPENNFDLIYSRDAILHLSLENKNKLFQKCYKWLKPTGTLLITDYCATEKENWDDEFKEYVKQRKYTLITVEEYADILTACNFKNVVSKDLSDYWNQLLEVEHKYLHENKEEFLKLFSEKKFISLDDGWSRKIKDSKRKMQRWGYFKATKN
# [2] = test system: C. parvum; test: Real-time PCR quantification of C. parvum DNA in fecal samples of infected mice; type: in vivo, Cryptosporidium parvum; details: for reduction of shedding of C. parvum in mice feces vs untreated infected mice: day 7 post-infection; for fecal C. parvum DNA load: Table 6, infected mice, multiplier printed in next cell
# Method: In vivo testing of the anti-Cryptosporidium effect of CpLDH inhibitors. Gamma interferon knockout mice (B6.129S7-Ifng), 8 weeks of age, were purchased from Charles River, USA. The care and use of the mice was done following the guidelines of protocol number 17024 approved by the University of Illinois at Urbana-Champaign, USA. The animals were allowed to acclimatize for 1 week before experiments commenced. Stock solutions of recombinant CpLDH inhibitors reconstituted in DMSO were diluted in sterile distilled water to reduce the final amount of DMSO in the solution to less than 1% (v/v) before administering them to mice. Prior to testing the anti-Cryptosporidium effect of the inhibitors in mice, the tolerability of each inhibitor was tested by oral gavage using varying dosages (100-2000 mg/kg body weight) of each inhibitor in groups of mice (three mice for each dose) daily for 7 days. Mice were observed daily for signs of toxicity including changes from normal physical activity, respiration, body temperature, feeding, posture, fur condition or occurrence of death. […] The subsequent dosages of NSC10447 used in the mice infection assays were 250, 500 and 1000 mg/kg mouse body weight, while the NSC158011 dosages used were 100, 200 and 400 mg/kg mouse body weight. Mice were allocated to groups as follows: “Infected plus inhibitor treatment”; “Infected minus inhibitor treatment”; “Uninfected minus inhibitor treatment” and “Infected plus paromomycin treatment”. Each group contained at least three mice. Each mouse in the infection groups received 5,000 C. parvum oocysts (resuspended in 50 μl of PBS) by oral gavage. Mice were housed individually in cages lined with sterile gauze as bedding. One day post-infection (PI), daily oral gavage administration of recombinant CpLDH inhibitor or paromomycin commenced and continued for a total of 7 days. Untreated mice received an equivalent volume of sterile distilled water (containing DMSO equivalent to the amount administered in the inhibitor-treated group) by oral gavage. Fecal pellets were collected daily from each cage and placed in individual sterile 15 ml conical tubes. An equivalent volume of PBS containing a cocktail of penicillin (100 units/ml), streptomycin (100 μg/ml), chloramphenicol (34 μg/ml) and amphotericin (0.25 μg/ml) was added to the fecal samples and stored at 4° C. until use for quantification of C. parvum genomic DNA load. Three independent replicate infection assays were performed. At 9 days PI, mice were euthanized and 5 cm of the distal small intestine resected 2 cm anterior to the cecum and immediately submerged in 4% buffered formalin. The intestinal tissues were submitted for histopathology to the Veterinary Diagnostic Laboratory at the University of Illinois at Urbana-Champaign. Briefly, intestinal tissues preserved in 4% buffered formalin were washed in 70% ethanol and embedded in 1% agar and then processed for paraffin embedding. For hematoxylin and eosin staining, five μm transverse and cross sections were cut and processed and stained following standard procedures of the Veterinary Diagnostic Laboratory. Sections were imaged using a Zeiss microscope and images captured with a color camera.
# Quantification of C. parvum shed in mice feces. Genomic DNA was extracted from individual fecal samples collected from mice at different days as described above. For each sample, 220 mg of homogenized feces were used to extract genomic DNA using the QIAamp PowerFecal DNA Kit (Qiagen, USA) following the manufacturer's instructions. Quantification of the amount of C. parvum 18s rRNA gene (GenBank accession number AF164102) was performed essentially as described previously (Int. J. Parasitol. 2018; 48(8), 649-656). Briefly, primers were used to generate a 240 bp amplicon from C. parvum genomic DNA by conventional PCR. […]
# [3] = Compound cytotoxicity assay (WST-1) in HCT-8 cells; type: cell-based, human; details: human; HCT-8 cells, 24 h, WST-1
# Method: Compound cytotoxicity assay. […] A colorimetric assay using the cell proliferation reagent WST-1 (Roche, USA) for the quantification of cell viability was performed. […] When the cells were confluent, the old medium was replaced with fresh medium with or without varying concentrations of chemical compound. After 24 h of culture, 10 μl of the cell proliferation reagent WST-1, (for quantification of cell viability) was added to each well, mixed and the plates incubated for 1 h at 37 C with 5% CO2 in the dark. […] Molecular Devices, USA).
# [4] = test system: C. parvum; test: Histopathology of distal small intestine of C. parvum infected mice; type: in vivo, Cryptosporidium parvum; details: lower small intestine, H&E, NSC158011 400 mg/kg, NSC10447 250, 500 or 1000 mg/kg, paromomycin 100 mg/kg
# Method: In vivo testing of the anti-Cryptosporidium effect of CpLDH inhibitors. Gamma interferon knockout mice (B6.129S7-Ifng), 8 weeks of age, were purchased from Charles River, USA. The care and use of the mice was done following the guidelines of protocol number 17024 approved by the University of Illinois at Urbana-Champaign, USA. The animals were allowed to acclimatize for 1 week before experiments commenced. Stock solutions of recombinant CpLDH inhibitors reconstituted in DMSO were diluted in sterile distilled water to reduce the final amount of DMSO in the solution to less than 1% (v/v) before administering them to mice. Prior to testing the anti-Cryptosporidium effect of the inhibitors in mice, the tolerability of each inhibitor was tested by oral gavage using varying dosages (100-2000 mg/kg body weight) of each inhibitor in groups of mice (three mice for each dose) daily for 7 days. Mice were observed daily for signs of toxicity including changes from normal physical activity, respiration, body temperature, feeding, posture, fur condition or occurrence of death. […] The subsequent dosages of NSC10447 used in the mice infection assays were 250, 500 and 1000 mg/kg mouse body weight, while the NSC158011 dosages used were 100, 200 and 400 mg/kg mouse body weight. Mice were allocated to groups as follows: “Infected plus inhibitor treatment”; “Infected minus inhibitor treatment”; “Uninfected minus inhibitor treatment” and “Infected plus paromomycin treatment”. Each group contained at least three mice. Each mouse in the infection groups received 5,000 C. parvum oocysts (resuspended in 50 μl of PBS) by oral gavage. Mice were housed individually in cages lined with sterile gauze as bedding. […] An equivalent volume of PBS containing a cocktail of penicillin (100 units/ml), streptomycin (100 μg/ml), chloramphenicol (34 μg/ml) and amphotericin (0.25 μg/ml) was added to the fecal samples and stored at 4° C. until use for quantification of C. parvum genomic DNA load. […]
# [5] = test system: Cryptosporidium parvum; test: In vitro anti-Cryptosporidium effect in HCT-8 cells (immunofluorescence assay); type: cell-based; details: HCT-8 cells; for IC50: Cryptosporidium parvum
# Method: In vitro testing of the anti-Cryptosporidium effect of CpLDH inhibitors. HCT-8 cells were cultured in supplemented RPMI-1640 medium in 96-well plates. When the cells were confluent, old medium was replaced with fresh medium. To one set of wells, varying concentrations of recombinant CpLDH inhibitors (reconstituted in DMSO and diluted in RPMI medium) were added, while another set was left without inhibitors. Paromomycin was used as a positive control drug reconstituted in distilled sterile water. Then, 4×10^4 freshly excysted sporozoites were added to each well and incubated at 37° C. with 5% CO2. After 2 h incubation, varying concentrations of CpLDH inhibitors were added to the set of infected cells that were not treated initially. Control infected cells without inhibitors, but with added DMSO volumes equivalent to those used in the wells with inhibitors, were included. The cells were maintained in culture for a total of either 48 h or 72 h and processed for immunofluorescence assay as previously described (Int. J. Parasitol. 2017; 47(13), 867-874). Briefly, medium was decanted, and the cells fixed with methanol-acetic acid (9:1) for 2 minutes at room temperature. The cells were rehydrated and permeabilized by two successive washes with buffer (0.1% Triton X-100, 0.35 M NaCl, 0.13 M Tris-base, pH 7.6) and blocked with 5% normal goat serum, followed by staining with antibody to C. parvum (SporoGlo; Waterborn, Inc.) overnight at 4° C. The stained cells were washed twice with PBS, followed by water, and then imaged with an inverted fluorescence microscope. Fluorescence quantification was done using ImageJ version 1.37v software (NIH). Assays were performed in triplicate and repeated at least thrice.
# [6] = test system: Plasmodium falciparum; details: previously shown; cited from earlier work
# [7] = Tolerability in mice; type: in vivo; details: daily oral gavage for 7 days, mice
# Method: In vivo testing of the anti-Cryptosporidium effect of CpLDH inhibitors. Gamma interferon knockout mice (B6.129S7-Ifng), 8 weeks of age, were purchased from Charles River, USA. The care and use of the mice was done following the guidelines of protocol number 17024 approved by the University of Illinois at Urbana-Champaign, USA. The animals were allowed to acclimatize for 1 week before experiments commenced. Stock solutions of recombinant CpLDH inhibitors reconstituted in DMSO were diluted in sterile distilled water to reduce the final amount of DMSO in the solution to less than 1% (v/v) before administering them to mice. Prior to testing the anti-Cryptosporidium effect of the inhibitors in mice, the tolerability of each inhibitor was tested by oral gavage using varying dosages (100-2000 mg/kg body weight) of each inhibitor in groups of mice (three mice for each dose) daily for 7 days. Mice were observed daily for signs of toxicity including changes from normal physical activity, respiration, body temperature, feeding, posture, fur condition or occurrence of death. […] An equivalent volume of PBS containing a cocktail of penicillin (100 units/ml), streptomycin (100 μg/ml), chloramphenicol (34 μg/ml) and amphotericin (0.25 μg/ml) was added to the fecal samples and stored at 4° C. until use for quantification of C. parvum genomic DNA load. […]
# [8] = target: recombinant CpLDH protein (Cryptosporidium parvum, UniProt Q9GT92, F198L/K295E/R251K); details: previous studies; cited from earlier work
# recombinant CpLDH protein, sequence (Q9GT92 whole entry F198L/K295E/R251K): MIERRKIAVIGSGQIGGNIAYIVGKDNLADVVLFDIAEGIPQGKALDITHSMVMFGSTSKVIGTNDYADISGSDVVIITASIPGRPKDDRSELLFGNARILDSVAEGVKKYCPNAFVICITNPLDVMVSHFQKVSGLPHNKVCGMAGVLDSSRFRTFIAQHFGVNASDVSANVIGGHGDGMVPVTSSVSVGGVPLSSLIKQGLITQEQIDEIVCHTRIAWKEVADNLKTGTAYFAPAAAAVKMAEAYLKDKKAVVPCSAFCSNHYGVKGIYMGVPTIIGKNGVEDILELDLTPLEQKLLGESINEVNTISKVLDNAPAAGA
# [9] = test system: Cryptosporidium parvum; details: previously reported by others; read-out: IC50, inhibition of C. parvum growth in HCT-8 cells; cited from earlier work
structure (smiles),measurement,setting,value
S=C(CSc1ccccc1)Nc1cccc2ccccc12 [NSC158011],inhibition of catalytic activity of P. falciparum phosphoethanolamine methyltransferase,[1],inhibit the catalytic activity
same,efficacy lower than paromomycin,"[2]; NSC158011 200 mg/kg, last three days of treatment",about 10 fold
same,shedding of C. parvum oocysts in mice feces,[2]; NSC158011 400 mg/kg,significantly (P<. 0.05) reduced
same,reduction of shedding of C. parvum in mice feces vs untreated infected mice,[2]; NSC158011 400 mg/kg,about 3000 fold
same,IC50 at 24 h,[3],149 µM
same,histopathology of intestinal epithelium and villi,[4],maintained intact intestinal mucosa and villi; also recorded: intact intestinal epithelium with prominent villi
same,effect on parasite growth at 40 μM,"[5]; 48 h post-infection, 40 μM",blocking parasite growth almost completely
same,IC50,"[5]; 48 h, compound added at the time of infection, read-out: IC50, inhibition of C. parvum growth at 48 h p.i.",14.9 µM
same,IC50,"[5]; 72 h, compound added at the time of infection, read-out: IC50, inhibition of C. parvum growth at 72 h p.i.",15.6 µM
same,IC50,"[5]; compound added 2 h post-infection, read-out: IC50, inhibition of C. parvum growth at 48 h p.i. (2 h)",15.8 µM
same,IC50,"[5]; compound added 2 h post-infection, read-out: IC50, inhibition of C. parvum growth at 72 h p.i. (2 h)",16.5 µM
same,inhibition of in vitro intracellular growth of P. falciparum,[6],inhibit in vitro intracellular growth of the parasite
same,highest tolerable dose (no toxicity signs),[7],400 mg/kg
CCCc1c(O)c(O)c(C(=O)O)c2cc(Cc3ccccc3)c(C)cc12 [FX11],inhibition of the enzymatic activity of CpLDH,[8],able to inhibit the enzymatic activity of CpLDH
"NC[C@@H]1O[C@H](O[C@H]2[C@@H](O)[C@H](O[C@@H]3[C@@H](O)[C@H](N)C[C@H](N)[C@H]3O[C@H]3O[C@H](CO)[C@@H](O)[C@H](O)[C@H]3N)O[C@@H]2CO)[C@H](N)[C@@H](O)[C@@H]1O [paromomycin, reference compound]",fecal C. parvum DNA load,"[2]; paromomycin 100 mg/kg, DPI 1",3.1 ± 0.2 ×10^−10 ng/μL
same,fecal C. parvum DNA load,"[2]; paromomycin 100 mg/kg, DPI 2",6.6 ± 0.5 ×10^−9 ng/μL
same,fecal C. parvum DNA load,"[2]; paromomycin 100 mg/kg, DPI 3",5.2 ± 0.3 ×10^−9 ng/μL
same,fecal C. parvum DNA load,"[2]; paromomycin 100 mg/kg, DPI 4",4.7 ± 0.2 ×10^−8 ng/μL
same,fecal C. parvum DNA load,"[2]; paromomycin 100 mg/kg, DPI 5",5.0 ± 0.6 ×10^−7 ng/μL
same,fecal C. parvum DNA load,"[2]; paromomycin 100 mg/kg, DPI 6",4.8 ± 0.1 ×10^−6 ng/μL
same,fecal C. parvum DNA load,"[2]; paromomycin 100 mg/kg, DPI 7",5.1 ± 0.8 ×10^−6 ng/μL
same,fecal C. parvum DNA load,"[2]; paromomycin 100 mg/kg, DPI 8",5.4 ± 0.1 ×10^−6 ng/μL
same,reduction of shedding of C. parvum in mice feces vs untreated infected mice,[2]; paromomycin 100 mg/kg,about 3000 fold
same,histopathology of intestinal epithelium and villi,[4],intact intestinal epithelium with prominent villi
same,IC50,[9],711 µM
same,IC50,"[5]; 48 h post-infection, positive control, read-out: IC50, inhibition of C. parvum growth",450 µM
same,IC50,"[5]; 72 h post-infection, positive control, read-out: IC50, inhibition of C. parvum growth",400 µM
